Source: patent US11198761B2, “Biodegradable polyionenes” (AGENCY FOR SCIENCE, TECHNOLOGY AND RESEARCH, priority 2017, dated 2021)

Legend:
[1] = test system: S. aureus (ATCC No. 6538); test: MIC, broth microdilution; assay type: cell-based, Staphylococcus aureus; settings: Gemini-surfactant series S; 18 hours, 37° C.
Procedure: (§1) Bacterial and fungal samples were inoculated according to ATCC's requirement. Briefly, bacteria and fungi were grown in Mueller Hinton Broth (MHB) at 37° C. and room temperature, respectively overnight to allow the microbes to enter the log growth phase with constant 100 rpm shaking. Minimum inhibitory concentration (MIC) of the polymers was determined using the broth microdilution method. 100 μL of 20% v/v water-containing broth with various polymer or Gemini-surfactant concentrations was first added into each well of a 96-well tissue culture plate. The inoculated overnight microbe solution was first diluted to an optical density (O.D.) reading of 0.07 using a microplate reader (TECAN, Switzerland). This will correspond to 3×10^8 CFU/mL based on the McFarland 1 standard solution (CFU=colony forming units). The microbe solution was further diluted 1000 times to achieve a final 3×10^5 CFU/mL. To each well, an equal volume of diluted microbes solution was added and incubated at 37° C. for 18 hours for bacteria samples and at room temperature for 42 hours for fungi samples. There were 6 replicates for each concentration tested, with negative control being microbes added into broth containing 20% v/v deionized water. MIC was taken as the lowest concentration at which there was no observable microbe growth when measured by the microplate reader.

[2] = test system: C. albicans (ATCC No 10231); test: MIC, broth microdilution; assay type: cell-based, Candida albicans; settings: Gemini-surfactant series S; 42 hours, room temperature
Procedure: as §1

[3] = test system: P. aeruginosa (ATCC No. 9027); test: MIC, broth microdilution; assay type: cell-based, Pseudomonas aeruginosa; settings: Gemini-surfactant series S; 18 hours, 37° C.
Procedure: as §1

[4] = test system: rat red blood cells (rRBCs); test: Hemolysis assay; assay type: cell-based; settings: Gemini-surfactant series S; 1 hour, 37° C.
Procedure: Freshly obtained rat red blood cells (rRBC) from the Animal Handling Unit of Biomedical Research Center (Singapore) was used to test the hemolytic activity of the polymers and Gemini-surfactants. The rRBC was diluted to 4% v/v with phosphate-buffered saline (PBS) and added to an equal volume of 0.2% v/v Triton-X solution. A microplate reader was used to measure the optical density (O.D.) reading to make sure the value is between 0.5 and 0.6. An equal volume of different polymer or Gemini-surfactant concentrations was added to the diluted blood and incubated for 1 hour at 37° C. The samples were centrifuged at 1000 g at 4° C. for 5 minutes and 100 μL of the supernatant was collected and transferred to a 96-well tissue culture plate. There were 4 replicates for each concentration. Haemoglobin release was measured using the microplate reader at 576 nm. rRBCs treated with PBS were used as the […] control, while those treated with 0.2% v/v Triton-X was used as the […] control.
Percentage of hemolysis was calculated as follows: Hemolysis (%)═[(O.D.576 nm of the treated sample−O.D.576 nm of negative control)/(O.D.576 nm of positive control−O.D.576 nm of negative control)]×100%
HC50 was taken as the polymer concentration at which the polymer causes 50% hemolysis.

E. coli (ATCC No. 25922) = test: MIC, broth microdilution; assay type: cell-based, Escherichia coli; settings: Gemini-surfactant series S; 18 hours, 37° C.
Procedure: as §1

MIC SA [1] [ppm]	MIC CA [2] [ppm]	MIC PA [3] [ppm]	MIC EC (E. coli (ATCC No. 25922)) [ppm]	SMILES	Hemolysis, HC50 [4]
31	125	>500	250	CCCCCCCC[N+](C)(C)Cc1ccc(C(=O)NCCNC(=O)c2ccc(C[N+](C)(C)CCCCCCCC)cc2)cc1.[Cl-].[Cl-] [S-1f]	>2000 ppm
1	2	16	2	CCCCCCCCCCCC[N+](C)(C)Cc1ccc(C(=O)NCCNC(=O)c2ccc(C[N+](C)(C)CCCCCCCCCCCC)cc2)cc1.[Cl-].[Cl-] [S-1g]	125-250 ppm
16	2	31	8	CCCCCCCCCCCC[N+](C)(C)Cc1ccc(C(=O)NCCNC(=O)c2ccc(C[N+](C)(C)CCCCCCCCCCCC)cc2)cc1.[Cl-].[Cl-] [S-1h]	125-250 ppm
4	8	500	16	CCCCCCCC[N+](C)(C)Cc1ccc(C(=O)NCCCCCCNC(=O)c2ccc(C[N+](C)(C)CCCCCCCC)cc2)cc1.[Cl-].[Cl-] [S-3f]	500-1000 ppm
4	2	16	16	CCCCCCCCCCCC[N+](C)(C)Cc1ccc(C(=O)NCCCCCCNC(=O)c2ccc(C[N+](C)(C)CCCCCCCCCCCC)cc2)cc1.[Cl-].[Cl-] [S-3h]	125-250 ppm
2	125	250	8	CCCCCCCC[N+](C)(C)Cc1ccc(C(=O)NCc2cccc(CNC(=O)c3ccc(C[N+](C)(C)CCCCCCCC)cc3)c2)cc1.[Cl-].[Cl-] [S-4f]	250-500 ppm
1	1	8	1	CCCCCCCCCC[N+](C)(C)Cc1ccc(C(=O)NCc2cccc(CNC(=O)c3ccc(C[N+](C)(C)CCCCCCCCCC)cc3)c2)cc1.[Cl-].[Cl-] [S-4g]	63-125 ppm
8	2	31	8	CCCCCCCCCCCC[N+](C)(C)Cc1ccc(C(=O)NCc2cccc(CNC(=O)c3ccc(C[N+](C)(C)CCCCCCCCCCCC)cc3)c2)cc1.[Cl-].[Cl-] [S-4h]	63-125 ppm
>500	>500	>500	>500	C=CC[N+](C)(C)Cc1ccc(C(=O)NCCOCCOCCNC(=O)c2ccc(C[N+](C)(C)CC=C)cc2)cc1.[Cl-].[Cl-] [S-5a]	>2000 ppm
>500	>500	>500	>500	C=C(C)C(=O)OCC[N+](C)(C)Cc1ccc(C(=O)NCCOCCOCCNC(=O)c2ccc(C[N+](C)(C)CCOC(=O)C(=C)C)cc2)cc1.[Cl-].[Cl-] [S-5b]	>2000 ppm
>500	>500	>500	>500	C[N+](C)(Cc1ccc(C(=O)NCCOCCOCCNC(=O)c2ccc(C[N+](C)(C)C3CCCCC3)cc2)cc1)C1CCCCC1.[Cl-].[Cl-] [S-5c]	>2000 ppm
>500	>500	>500	>500	C[N+](C)(Cc1ccccc1)Cc1ccc(C(=O)NCCOCCOCCNC(=O)c2ccc(C[N+](C)(C)Cc3ccccc3)cc2)cc1.[Cl-].[Cl-] [S-5d]	>2000 ppm
>500	>500	>500	>500	CCCC[N+](C)(C)Cc1ccc(C(=O)NCCOCCOCCNC(=O)c2ccc(C[N+](C)(C)CCCC)cc2)cc1.[Cl-].[Cl-] [S-5e]	>2000 ppm
31	125	>500	250	CCCCCCCC[N+](C)(C)Cc1ccc(C(=O)NCCOCCOCCNC(=O)c2ccc(C[N+](C)(C)CCCCCCCC)cc2)cc1.[Cl-].[Cl-] [S-5f]	>2000 ppm
2	2	63	4	CCCCCCCCCC[N+](C)(C)Cc1ccc(C(=O)NCCOCCOCCNC(=O)c2ccc(C[N+](C)(C)CCCCCCCCCC)cc2)cc1.[Cl-].[Cl-] [S-5g]	125-250 ppm
2	1	16	4	CCCCCCCCCCCC[N+](C)(C)Cc1ccc(C(=O)NCCOCCOCCNC(=O)c2ccc(C[N+](C)(C)CCCCCCCCCCCC)cc2)cc1.[Cl-].[Cl-] [S-5h]	16-31 ppm
16	16	>500	125	CCCCCCCC[N+](C)(C)Cc1ccc(C(=O)NCCCOCCOCCOCCCNC(=O)c2ccc(C[N+](C)(C)CCCCCCCC)cc2)cc1.[Cl-].[Cl-] [S-6f]	>2000 ppm
2	4	63	4	CCCCCCCCCC[N+](C)(C)Cc1ccc(C(=O)NCCCOCCOCCOCCCNC(=O)c2ccc(C[N+](C)(C)CCCCCCCCCC)cc2)cc1.[Cl-].[Cl-] [S-6g]	250-500 ppm
1	4	8	2	CCCCCCCCCCCC[N+](C)(C)Cc1ccc(C(=O)NCCCOCCOCCOCCCNC(=O)c2ccc(C[N+](C)(C)CCCCCCCCCCCC)cc2)cc1.[Cl-].[Cl-] [S-6h]	31-63 ppm
1	1	8	1	CCCCCCCCCC[N+](C)(C)Cc1ccc(C(=O)OCCCOC(=O)c2ccc(C[N+](C)(C)CCCCCCCCCC)cc2)cc1.[Cl-].[Cl-] [S-7g]	63-125 ppm
1	1	8	2	CCCCCCCCCC[N+](C)(C)Cc1ccc(C(=O)OCCCCCCOC(=O)c2ccc(C[N+](C)(C)CCCCCCCCCC)cc2)cc1.[Cl-].[Cl-] [S-9g]	125-250 ppm
16	16	500	500	CCCCCCCCCC[N+](C)(C)Cc1ccc(C(=O)OCCCCCCCCCCCCOC(=O)c2ccc(C[N+](C)(C)CCCCCCCCCC)cc2)cc1.[Cl-].[Cl-] [S-10g]	63-125 ppm
1	2	8	2	CCCCCCCCCC[N+](C)(C)Cc1ccc(C(=O)OCc2ccc(COC(=O)c3ccc(C[N+](C)(C)CCCCCCCCCC)cc3)cc2)cc1.[Cl-].[Cl-] [S-12g]	125-250 ppm
1	1	4	1	CCCCCCCCCC[N+](C)(C)Cc1ccc(C(=O)NCCCCCCOC(=O)c2ccc(C[N+](C)(C)CCCCCCCCCC)cc2)cc1.[Cl-].[Cl-] [S-13g]	63-125 ppm
